Source: patent US12617773B2, “Azetidin-3-ylmethanol derivatives as CCR6 receptor modulators” (Idorsia Pharmaceuticals Ltd, priority 2020, dated 2026)

Target: T1, human CCR6 (Homo sapiens, UniProt P51684)
T1 construct: expressed in transfected cells; host or cells: HEK-293
T1 sequence (P51684 1-374): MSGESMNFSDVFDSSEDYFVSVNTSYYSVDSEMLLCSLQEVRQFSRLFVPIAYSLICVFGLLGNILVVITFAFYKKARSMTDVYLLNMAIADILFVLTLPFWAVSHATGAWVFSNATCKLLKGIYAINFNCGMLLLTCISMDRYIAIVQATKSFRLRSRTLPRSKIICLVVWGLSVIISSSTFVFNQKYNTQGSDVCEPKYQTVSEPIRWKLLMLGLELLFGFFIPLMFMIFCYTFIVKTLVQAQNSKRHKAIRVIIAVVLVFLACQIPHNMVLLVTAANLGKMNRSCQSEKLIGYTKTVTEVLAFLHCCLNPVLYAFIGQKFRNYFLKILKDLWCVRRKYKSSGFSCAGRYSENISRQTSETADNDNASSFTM
Assay: FLIPR assay (inhibition of CCL20-induced calcium signal)
Format: cell-based
Conditions: HEK-293 cells expressing human CCR6; mean values where determined several times; read-out: FLIPR IC50
Method in brief: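 Dye-loaded HEK-293 cells expressing human CCR6 were preincubated with compound for 30 min at room temperature in the dark, then challenged with 10 nM CCL20 (final). Fluorescence was tracked on FLIPR, and baseline-subtracted peak emission over base after agonist addition gave inhibition dose-response curves for IC50.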

## CC(C)c1ccc(C(O)(c2cncc(OCCc3ccccn3)c2)C2(C)CN(C)C2)cc1 (stereo not shown) [Example 246, (1,3-Dimethyl-azetidin-3-yl)-(4-isopropyl-phenyl)-[5-(2-pyridin-2-yl-ethoxy)-pyridin-3-yl]-methanol]
  IC50: 33.3 nM

## COCCOc1cncc(C(O)(c2ccc(C(C)C)cc2)C2(C)CN(C)C2)c1 (stereo not shown) [Example 247]
  IC50: 250 nM

## CC(C)c1ccc(C(O)(c2cncc(OCC3COC3)c2)C2(C)CN(C)C2)cc1 (stereo not shown) [Example 248]
  IC50: 247 nM

## CC(C)c1ccc([C@](O)(c2cncc(OCCCO)c2)C2(C)CN(C)C2)cc1 [Example 249]
  IC50: 78.4 nM

## CC(C)Oc1cncc([C@@](O)(c2ccc(C(C)C)cc2)C2(C)CN(C)C2)c1 [Example 250]
  IC50: 10.9 nM

## CC(C)c1ccc([C@](O)(c2cncc(OC3CCCCC3)c2)C2(C)CN(C)C2)cc1 [Example 251]
  IC50: 8.25 nM

## CC(C)c1ccc([C@](O)(c2cncc(OCC(C)(C)O)c2)C2(C)CN(C)C2)cc1 [Example 252]
  IC50: 238 nM

## COC1CCC(Oc2cncc([C@@](O)(c3ccc(C(C)C)cc3)C3(C)CN(C)C3)c2)C1 (stereo partly shown) [Example 253]
  IC50: 13.1 nM

## CC(C)c1ccc([C@](O)(c2cncc(OCc3nc(C4CC4)no3)c2)C2(C)CN(C)C2)cc1 [Example 254]
  IC50: 19.3 nM

## Cc1nc(C)n(CCOc2cncc([C@@](O)(c3ccc(C(C)C)cc3)C3(C)CN(C)C3)c2)n1 [Example 255]
  IC50: 774 nM

## CC(C)c1ccc([C@](O)(c2cncc(OCCC(C)(C)O)c2)C2(C)CN(C)C2)cc1 [Example 256]
  IC50: 57.8 nM

## COc1cncc([C@@](O)(c2ccc(C(C)C)cc2)C2(C)CN(C)C2)c1 [Example 257]
  IC50: 87.4 nM

## CC(C)c1ccc([C@](O)(c2cncc(OCCOCc3ccccc3)c2)C2(C)CN(C)C2)cc1 [Example 258]
  IC50: 15.5 nM

## CC(C)c1ccc([C@](O)(c2cncc(OC3CCOCC3)c2)C2(C)CN(C)C2)cc1 [Example 259]
  IC50: 56.7 nM

## CC(C)c1ccc([C@](O)(c2cncc(OCCO)c2)C2(C)CN(C)C2)cc1 [Example 260, 2-{5-[(R)-(1,3-Dimethyl-azetidin-3-yl)-hydroxy-(4-isopropyl-phenyl)-methyl]-pyridin-3-yloxy}-ethanol]
  IC50: 324 nM

## CC(C)c1ccc([C@](O)(c2cncc(OC3CCC(O)CC3)c2)C2(C)CN(C)C2)cc1 (stereo partly drawn) [Example 261, 4-{5-[(R)-(1,3-Dimethyl-azetidin-3-yl)-hydroxy-(4-isopropyl-phenyl)-methyl]-pyridin-3-yloxy}-cyclohexanol]
  IC50: 206 nM

## CC(C)c1ccc([C@](O)(c2cncc(OC3CCC(C)(O)CC3)c2)C2(C)CN(C)C2)cc1 (stereo partly drawn) [Example 262, 4-{5-[(R)-(1,3-Dimethyl-azetidin-3-yl)-hydroxy-(4-isopropyl-phenyl)-methyl]-pyridin-3-yloxy}-1-methyl-cyclohexanol]
  IC50: 72.6 nM

## CN1CC(C)(C(O)(c2ccc(OC(F)(F)F)cc2)c2cnc(Oc3ccccc3)nc2)C1 (stereo not shown) [Example 263]
  IC50: 162 nM

## CN1CC(C)(C(O)(c2ccc(OC(F)(F)F)cc2)c2ccc(OCc3ccccc3)nc2)C1 (stereo not shown) [Example 264]
  IC50: 167 nM

## CN1CC(C)(C(O)(c2ccc(OC(F)(F)F)cc2)c2cncc(-n3cccn3)c2)C1 (stereo not shown) [Example 265]
  IC50: 90.6 nM

## CN1CC(C)(C(O)(c2ccc(OC(F)(F)F)cc2)c2cnc(F)c(N3CCCC3)c2)C1 (stereo not shown) [Example 266, (1,3-Dimethyl-azetidin-3-yl)-(6-fluoro-5-pyrrolidin-1-yl-pyridin-3-yl)-(4-trifluoromethoxy-phenyl)-methanol]
  IC50: 79.1 nM

## CN1CC(C)(C(O)(c2ccc(OC(F)(F)F)cc2)c2cnc(C#N)c(N3CCCC3)c2)C1 (stereo not shown) [Example 267, 5-[(1,3-Dimethyl-azetidin-3-yl)-hydroxy-(4-trifluoromethoxy-phenyl)-methyl]-3-pyrrolidin-1-yl-pyridine-2-carbonitrile]
  IC50: 103 nM

## CN1CC(C)(C(O)(c2ccc(OC(F)(F)F)cc2)c2ccc(OC3CCOCC3)nc2)C1 (stereo not shown) [Example 268, (1,3-Dimethyl-azetidin-3-yl)-[6-(tetrahydro-pyran-4-yloxy)-pyridin-3-yl]-(4-trifluoromethoxy-phenyl)-methanol]
  IC50: 99.3 nM

## CN1CC(C)(C(O)(c2ccc(OC(F)(F)F)cc2)c2ccc(OCC3COC3)nc2)C1 (stereo not shown) [Example 269, (1,3-Dimethyl-azetidin-3-yl)-[6-(oxetan-3-ylmethoxy)-pyridin-3-yl]-(4-trifluoromethoxy-phenyl)-methanol]
  IC50: 224 nM

## Cc1csc(-c2cncc(C(O)(c3ccc(C(C)C)cc3)C3(C)CN(C)C3)c2)n1 (stereo not shown) [Example 270, (1,3-Dimethyl-azetidin-3-yl)-(4-isopropyl-phenyl)-[5-(4-methyl-thiazol-2-yl)-pyridin-3-yl]-methanol]
  IC50: 27.4 nM

## Cc1cnc(-c2cncc(C(O)(c3ccc(C(C)C)cc3)C3(C)CN(C)C3)c2)s1 (stereo not shown) [Example 271, (1,3-Dimethyl-azetidin-3-yl)-(4-isopropyl-phenyl)-[5-(5-methyl-thiazol-2-yl)-pyridin-3-yl]-methanol]
  IC50: 36.5 nM

## COc1ncc(C(O)(c2ccc(C(C)C)cc2)C2(C)CN(C)C2)cn1 (stereo not shown) [Example 272, (1,3-Dimethyl-azetidin-3-yl)-(4-isopropyl-phenyl)-(2-methoxy-pyrimidin-5-yl)-methanol]
  IC50: 485 nM

## CC(C)c1ccc([C@](O)(c2ccnc(N3CCCC3)c2)C2(C)CN(C)C2)cc1 [Example 273, (S)-(1,3-Dimethyl-azetidin-3-yl)-(4-isopropyl-phenyl)-(2-pyrrolidin-1-yl-pyridin-4-yl)-methanol]
  IC50: 32 nM

## CC(C)c1ccc(C(O)(c2ccnc(N3CCC[C@@H]3CO)c2)C2(C)CN(C)C2)cc1 (stereo partly shown) [Example 274]
  IC50: 252 nM

## CC(C)c1ccc(C(O)(c2ccnc(N3CCCCC3)c2)C2(C)CN(C)C2)cc1 (stereo not shown) [Example 275]
  IC50: 67.1 nM

## CC(C)c1ccc(C(O)(c2ccnc(N3CCOCC3)c2)C2(C)CN(C)C2)cc1 (stereo not shown) [Example 276]
  IC50: 413 nM

## CC(C)c1ccc([C@](O)(c2ccnc(OCC3CCOCC3)c2)C2(C)CN(C)C2)cc1 [Example 277, (S)-(1,3-Dimethyl-azetidin-3-yl)-(4-isopropyl-phenyl)-[2-(tetrahydro-pyran-4-ylmethoxy)-pyridin-4-yl]-methanol]
  IC50: 42.2 nM

## COCCOc1cc([C@@](O)(c2ccc(C(C)C)cc2)C2(C)CN(C)C2)ccn1 [Example 278, (S)-(1,3-Dimethyl-azetidin-3-yl)-(4-isopropyl-phenyl)-[2-(2-methoxy-ethoxy)-pyridin-4-yl]-methanol]
  IC50: 48.9 nM

## CCc1cc([C@@](O)(c2ccc(C(C)C)cc2)C2(C)CN(C)C2)ccn1 [Example 279, (S)-(1,3-Dimethyl-azetidin-3-yl)-(2-ethyl-pyridin-4-yl)-(4-isopropyl-phenyl)-methanol]
  IC50: 166 nM

## CC(C)c1ccc([C@](O)(c2ccnc(C3CCCC3)c2)C2(C)CN(C)C2)cc1 [Example 280, (S)-(2-Cyclopentyl-pyridin-4-yl)-(1,3-dimethyl-azetidin-3-yl)-(4-isopropyl-phenyl)-methanol]
  IC50: 37.4 nM

## CN1CC(C)([C@](O)(c2ccc(C(F)(F)F)cc2)c2cncc(N3CCCC3)c2)C1 [Example 281, (R)-(1,3-Dimethyl-azetidin-3-yl)-(5-pyrrolidin-1-yl-pyridin-3-yl)-(4-trifluoromethyl-phenyl)-methanol]
  IC50: 82.2 nM

## CC(C)c1ccc([C@](O)(c2cncc(N3CC[C@@](C)(CO)C3)c2)C2(C)CN(C)C2)cc1 [Example 282]
  IC50: 44.3 nM
